Source: patent US20250387363A1, “LIQUID EPINEPHRINE PRODRUG FORMULATIONS AND LIQUID EPINEPHRINE FORMULATIONS” (Insignis Therapeutics, Inc., priority 2024, published 2025)

How the values were obtained:
[1] = Cross study epinephrine PK comparison, L-dipivefrin HCl formulations vs EpiPen 0.3 mg; type: in vivo, human; conditions: oral formulations administered sublingually; Table 10.1
From the text: FIG. 5. […] Study period I and study period II refer to the two test periods described in example 7 which are separated by a 1 week washout period.

[2] = tested on: healthy adult human volunteers; test: Cross study pharmacodynamic response comparison (SBP, DBP, PR change from baseline) vs EpiPen 0.3 mg; type: in vivo; conditions: sublingual liquid dosage form, 10 mg dipivefrin HCl, two hours postdose
[3] = rabbits; cited from earlier work

Epinephrine exposures compared to Epipen 0.3 mg [1] | Compound | Median SBP (Systolic Blood Pressure) change from baseline response compared to EpiPen 0.3 mg injection ([2]; FIG. 6) | Median DBP (Diastolic Blood Pressure) change from baseline response compared to EpiPen 0.3 mg injection ([2]; FIG. 7) | Median PR (Pulse Rate) change from baseline response compared to EpiPen 0.3 mg injection ([2]; FIG. 8) | PD response (SBP, DBP and PR change from baseline) compared to EpiPen 0.3 mg injection ([2]; FIGS. 6-8) | Sublingual dose giving systemic absorption equivalent to IM epinephrine [3] [mg]
comparable | CNC[C@H](O)c1ccc(OC(=O)C(C)(C)C)c(OC(=O)C(C)(C)C)c1.Cl [L-dipivefrin HCl, L-dipivefrin hydrochloride] | greater | greater | comparable or greater | comparable or greater | –
– | CNC[C@H](O)c1ccc(O)c(O)c1 [epinephrine, 4-[(1R)-1-hydroxy-2-(methylamino)ethyl]benzene-1,2-diol] | – | – | – | – | 40
